Data: patent US8338414B2, “Immunosuppressive agent and anti-tumor agent comprising heterocyclic compound as active ingredient” (Zenyaku Kogyo KabushikiKaisha, priority 2005, dated 2012)
Like-named read-outs stand apart in the source and are kept apart here.

Assays:
U 937 cells = test: Proliferation inhibitory activity on hematologic neoplasm cells, U937; format: cell-based; details: Homo sapiens, U-937, 72 h; 3 days, Alamar Blue
[1] = test system: allogeneic mixed lymphocyte reaction; test: Allogeneic mixed lymphocyte reaction; format: cell-based, mouse; details: Mus musculus, Lymphocyte; C57BL/6N spleen stimulator cells, BALB/c lymph node responder cells, 86 hours, BrdU
Procedure, shortened: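 Stimulators were C57BL/6N female spleen cells and responders BALB/c female peripheral lymph node mononuclear cells (mice 8-10 weeks old). Cells suspended at 2×10^6 cells/mL in RPMI 1640 with 10% FBS and antibiotics.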

mouse spleen cells = test: Proliferation inhibition assay for mouse spleen cells; format: cell-based; details: 72 h, 3 days, Alamar Blue
Procedure, shortened: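 C57BL/6N female mouse spleen cells (2×10^6 cells/mL) stimulated with Con A (3 μg/mL), LPS (100 μg/mL) or anti-mouse IgM (100 μg/mL) alongside serially diluted compounds, 3 days at 37° C, 5% CO2. Alamar Blue added for a further day; fluorescence read at ex 530/em 590 nm.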

[2] = test system: Salmonella typhimurium TA98, TA100, TA1535, TA1537 and Escherichia coli WP2uvrA; test: Ames test; format: cell-based; details: preincubation method, with or without S-9, up to 5000 μg/flat plate
Experimental: Using 5 strains of Salmonella typhimurium TA98, TA100, TA1535, TA1537 and Escherichia coli WP2uvrA, the test substances (Compound 4, Compound 19, Compound 22 and Compound 24) were tested for their mutagenesis according to a preincubation method.

FC(F)c1nc2ccccc2n1-c1nc(N2CCOCC2)nc(N2CCOCC2)n1 [Compound 4, 2-(2-Difluoromethylbenzimidazol-1-yl)-4,6-dimorpholino-1,3,5-triazine]
IC50 (U 937 cells): 3.24 µM | IC50 [1]: 0.218 µM | IC50 (mouse spleen cells; LPS 100 μg/mL, read-out: Inhibition of LPS response): 0.001 to 0.1 µM | IC50 (mouse spleen cells; anti-mouse IgM antibody 100 μg/mL, read-out: Inhibition of Anti-IgM antibody response): 0.001 to 0.1 µM | IC50 (mouse spleen cells; concanavalin A 3 μg/mL, read-out: Inhibition of Con A response): 0.001 to 0.1 µM | mutagenesis (colony number of reverse mutation) [2]: negative
